Assays:
HDAC4 = HDAC4 (Homo sapiens, UniProt P56524); assay: Preincubation HDAC inhibition assay, HDAC4; assay type: biochemical; settings: preincubation 1 h at 25 °C
HDAC1 = HDAC1 (Homo sapiens, UniProt Q13547); assay: Preincubation HDAC inhibition assay, HDAC1; assay type: biochemical; settings: preincubation 1 h at 25 °C
HDAC2 = HDAC2 (Homo sapiens, UniProt Q92769); assay: Preincubation HDAC inhibition assay, HDAC2; assay type: biochemical; settings: preincubation 1 h at 25 °C
HDAC6 [1] = molecular target: T1, HDAC6 (Homo sapiens, UniProt Q9UBN7); assay: Preincubation HDAC inhibition assay, HDAC6; assay type: biochemical; settings: preincubation 1 h at 25 °C
T1 sequence (Q9UBN7 1-1215): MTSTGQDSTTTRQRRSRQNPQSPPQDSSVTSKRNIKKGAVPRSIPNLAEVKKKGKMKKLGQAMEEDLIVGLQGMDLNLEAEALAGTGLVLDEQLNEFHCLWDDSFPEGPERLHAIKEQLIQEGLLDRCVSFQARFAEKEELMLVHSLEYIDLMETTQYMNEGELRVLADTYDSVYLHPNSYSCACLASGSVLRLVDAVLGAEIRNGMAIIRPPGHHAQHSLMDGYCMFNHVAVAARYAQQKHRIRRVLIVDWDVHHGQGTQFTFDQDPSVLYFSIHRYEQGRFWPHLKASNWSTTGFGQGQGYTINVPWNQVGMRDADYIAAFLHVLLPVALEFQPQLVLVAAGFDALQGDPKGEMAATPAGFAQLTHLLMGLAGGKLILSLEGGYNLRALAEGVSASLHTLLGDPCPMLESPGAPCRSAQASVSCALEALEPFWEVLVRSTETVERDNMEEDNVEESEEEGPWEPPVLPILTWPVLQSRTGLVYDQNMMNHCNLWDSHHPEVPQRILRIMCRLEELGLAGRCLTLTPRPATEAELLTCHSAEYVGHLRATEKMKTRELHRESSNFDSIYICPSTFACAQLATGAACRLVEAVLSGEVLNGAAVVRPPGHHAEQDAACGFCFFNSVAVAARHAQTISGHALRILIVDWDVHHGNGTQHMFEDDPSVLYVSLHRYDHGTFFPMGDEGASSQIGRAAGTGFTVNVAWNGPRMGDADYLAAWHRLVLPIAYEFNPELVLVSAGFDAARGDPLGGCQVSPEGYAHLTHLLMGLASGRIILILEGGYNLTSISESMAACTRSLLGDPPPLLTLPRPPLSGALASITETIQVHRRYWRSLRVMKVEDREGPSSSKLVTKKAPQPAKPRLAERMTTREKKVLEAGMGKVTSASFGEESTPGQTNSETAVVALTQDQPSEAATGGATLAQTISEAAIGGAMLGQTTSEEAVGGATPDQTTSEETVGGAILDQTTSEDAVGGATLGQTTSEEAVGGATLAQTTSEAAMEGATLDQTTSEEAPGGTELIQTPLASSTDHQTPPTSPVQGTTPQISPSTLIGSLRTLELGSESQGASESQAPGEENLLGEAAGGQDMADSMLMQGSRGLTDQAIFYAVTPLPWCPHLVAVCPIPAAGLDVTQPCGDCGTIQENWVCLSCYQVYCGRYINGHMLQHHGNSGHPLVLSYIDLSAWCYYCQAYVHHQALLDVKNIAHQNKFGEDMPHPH

[2] = LC-MS control: inhibitor in size exclusion buffer without enzyme; assay type: physicochemical; settings: 100 μM inhibitor in size exclusion buffer only (pH 7.5), overnight
HDAC6 [3] = molecular target: T1, HDAC6; assay: IC50-shift experiments at HDAC6; assay type: biochemical; settings: preincubation 5, 60 and 120 min
HDAC6 [4] = molecular target: T1, HDAC6; assay: Binding kinetics via the Progression Method at HDAC6; assay type: biochemical; settings: progression curves, substrate at five times KM, 37 °C

Sequence of HDAC4 (P56524 whole entry): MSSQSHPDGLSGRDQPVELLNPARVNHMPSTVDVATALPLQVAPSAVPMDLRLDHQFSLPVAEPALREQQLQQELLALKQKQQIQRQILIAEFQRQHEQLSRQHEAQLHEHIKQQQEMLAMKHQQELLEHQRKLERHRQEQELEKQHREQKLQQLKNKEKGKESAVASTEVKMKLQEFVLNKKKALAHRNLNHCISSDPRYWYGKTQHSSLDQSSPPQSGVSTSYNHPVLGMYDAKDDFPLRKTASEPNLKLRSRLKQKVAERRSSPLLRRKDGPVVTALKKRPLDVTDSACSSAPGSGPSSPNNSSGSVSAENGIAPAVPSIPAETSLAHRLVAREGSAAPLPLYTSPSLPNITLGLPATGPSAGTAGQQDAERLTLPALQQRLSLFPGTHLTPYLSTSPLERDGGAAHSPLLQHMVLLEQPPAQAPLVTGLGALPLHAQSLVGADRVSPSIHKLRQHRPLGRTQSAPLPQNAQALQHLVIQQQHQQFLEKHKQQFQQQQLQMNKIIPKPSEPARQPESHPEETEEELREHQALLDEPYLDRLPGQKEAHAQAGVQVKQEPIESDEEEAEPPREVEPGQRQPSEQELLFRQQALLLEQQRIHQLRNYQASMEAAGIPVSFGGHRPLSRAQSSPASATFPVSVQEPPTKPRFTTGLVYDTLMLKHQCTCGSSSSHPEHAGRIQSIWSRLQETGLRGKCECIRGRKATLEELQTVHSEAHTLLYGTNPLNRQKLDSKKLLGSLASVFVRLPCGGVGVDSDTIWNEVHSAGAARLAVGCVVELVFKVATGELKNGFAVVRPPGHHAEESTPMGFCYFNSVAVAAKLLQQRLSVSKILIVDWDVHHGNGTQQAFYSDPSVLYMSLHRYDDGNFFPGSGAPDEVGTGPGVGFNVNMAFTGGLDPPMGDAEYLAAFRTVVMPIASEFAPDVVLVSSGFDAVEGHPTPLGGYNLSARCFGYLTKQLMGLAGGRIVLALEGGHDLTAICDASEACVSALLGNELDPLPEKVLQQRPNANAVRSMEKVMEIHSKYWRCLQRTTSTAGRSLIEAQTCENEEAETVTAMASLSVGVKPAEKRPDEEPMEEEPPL
Sequence of HDAC1 (Q13547 whole entry): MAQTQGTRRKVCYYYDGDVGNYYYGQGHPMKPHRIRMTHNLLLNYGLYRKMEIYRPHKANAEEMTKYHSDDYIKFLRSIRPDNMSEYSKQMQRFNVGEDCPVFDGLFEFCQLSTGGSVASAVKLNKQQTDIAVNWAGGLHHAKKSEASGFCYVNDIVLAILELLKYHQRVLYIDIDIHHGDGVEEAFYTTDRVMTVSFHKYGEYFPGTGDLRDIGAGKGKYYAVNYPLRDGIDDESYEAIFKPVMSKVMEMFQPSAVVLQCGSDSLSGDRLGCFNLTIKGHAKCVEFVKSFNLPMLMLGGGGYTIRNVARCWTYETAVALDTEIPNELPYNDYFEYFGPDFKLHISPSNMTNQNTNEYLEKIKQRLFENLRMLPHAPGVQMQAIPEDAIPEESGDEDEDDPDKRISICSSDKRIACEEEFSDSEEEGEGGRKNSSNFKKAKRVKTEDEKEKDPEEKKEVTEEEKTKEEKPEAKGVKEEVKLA
Sequence of HDAC2 (Q92769 whole entry): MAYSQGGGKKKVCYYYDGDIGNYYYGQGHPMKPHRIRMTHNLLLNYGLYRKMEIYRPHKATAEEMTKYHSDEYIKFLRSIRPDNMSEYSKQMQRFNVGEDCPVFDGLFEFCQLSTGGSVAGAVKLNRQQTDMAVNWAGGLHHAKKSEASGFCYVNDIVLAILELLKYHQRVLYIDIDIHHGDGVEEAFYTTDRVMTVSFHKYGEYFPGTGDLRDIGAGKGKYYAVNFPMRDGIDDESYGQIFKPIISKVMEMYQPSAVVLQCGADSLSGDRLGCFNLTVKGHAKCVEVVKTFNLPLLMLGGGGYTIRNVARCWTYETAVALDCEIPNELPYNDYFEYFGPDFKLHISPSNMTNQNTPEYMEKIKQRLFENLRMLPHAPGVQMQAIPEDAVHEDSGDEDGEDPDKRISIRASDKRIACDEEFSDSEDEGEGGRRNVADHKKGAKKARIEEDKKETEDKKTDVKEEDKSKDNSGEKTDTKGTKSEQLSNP

SMILES | HDAC4 percent inhibition at 10 μM (HDAC4) | HDAC1 percent inhibition at 10 μM (HDAC1) | HDAC2 percent inhibition at 10 μM (HDAC2) | HDAC6 percent inhibition at 10 μM (HDAC6 [1]) | Hydrolysis in the absence of enzyme [2] | Dependence of HDAC6 inhibition on preincubation time (HDAC6 [3]) | Slow-binding mechanism from kobs vs inhibitor concentration (HDAC6 [4])
COc1ccc(CNc2ncc(-c3nnc(C(F)F)o3)cn2)cc1 [Compound 7, 5-[5-(Difluoromethyl)-1,3,4-oxadiazol-2-yl]-N-(4-methoxybenzyl)pyrimidin-2-amine] | no activity | no activity | no activity | – | – | – | –
CCCCN(Cc1ccc(-c2nnc(C(F)F)o2)cc1)C(=O)Nc1ccccc1 [Compound 9, 1-Butyl-1-{4-[5-(difluoromethyl)-1,3,4-oxadiazol-2-yl]benzyl}−3-phenylurea] | inactive | inactive | inactive | only moderate inhibitory activity | – | – | –
FC(F)c1nnc(-c2cnc(NCc3ccccc3)nc2)o1 [Compound 6, N-Benzyl-5-[5-(difluoromethyl)-1,3,4-oxadiazol-2-yl]pyrimidin-2-amine] | no activity | no activity | no activity | – | does not undergo hydrolysis | highly dependent on the preincubation time | mechanism II
CN(C)c1ccc(C(=O)N(CC(=O)NCc2ccccc2)Cc2ccc(-c3nnc(C(F)F)o3)cc2)cc1 [Compound 12, N-[2-(Benzylamino)-2-oxoethyl]-N-{4-[5-(difluoromethyl)-1,3,4-oxadiazol-2-yl]benzyl}−4-(dimethylamino)benzamide] | inactive | inactive | inactive | only moderate inhibitory activity | – | – | –
O=C(CCCCCCC(=O)Nc1ccccc1)NO [Vorinostat, reference compound] | – | – | – | – | – | did not depend on the preincubation time | –
CCCCN(Cc1ccc(-c2nnc(C(F)F)o2)cc1)C(=O)c1ccccc1 [Compound 10, N-Butyl-N-{4-[5-(difluoromethyl)-1,3,4-oxadiazol-2-yl]benzyl}benzamide] | inactive | inactive | inactive | only moderate inhibitory activity | – | – | –
FC(F)(F)c1nnc(-c2cnc(NCc3ccccc3)nc2)o1 [Compound 17, N-Benzyl-5-[5-(trifluoromethyl)-1,3,4-oxadiazol-2-yl]pyrimidin-2-amine] | no inhibition | no inhibition | no inhibition | – | – | substantial decrease in the HDAC6 IC50 values upon preincubation | single-step slow-binding mechanism I
O=C(NNC(=O)C(F)F)c1cnc(NCc2ccccc2)nc1 [Compound 13, 2-(Benzylamino)-N’-(2,2-difluoroacetyl)pyrimidine-5-carbohydrazide] | – | – | – | does not show any inhibitory activity | – | – | –

From publication PMC10591924 (Journal of medicinal chemistry, 2023)
